{"source": "patent US20200080053A1", "about": "“USE OF PEPTIDE COMPOUNDS FOR PROMOTING SURVIVAL, GROWTH AND CELL DIFFERENTIATION” (Axoltis Pharma, priority 2016, published 2020)", "format_in_all_cases": "cell-based", "key": {"[1]": {"tested_on": "129S v/J embryonic stem cells (ESCs)", "experiment": "Early differentiation of ESCs on gelatin without LIF and serum, nestin/MAP2 immunocytochemistry", "protocol": "129S v/J embryonic stem cells (ESCs) were seeded at a concentration of 0.7×10^6 cells in 35 mm diameter Petri dishes covered with a gelatin substrate.\nThe culture medium used was the Glasgow's minimal essential medium (G-MEM) supplemented with N2 supplement.\nTo enable differentiation of ESCs into neuroepithelial progenitors, the culture medium was deprived of LIF (Leukemia Inhibitory factor) because LIF is a key factor of the self-renewal of ESCs.\nThe various tests were carried out in absence of serum because serum limits the possibility to specifically orientate the differentiation and it could hide, or at least reduce, the effects of the peptide compound of the invention.\nESCs were grown in the culture medium as defined above with addition of 0.5 mg/ml NX210 (SEQ ID NO: 6) at day 1, 3 and 5.\nThen, cultures were fixed with 4% paraformaldehyde after 7 days of culture.\nTo analyze the differentiation of ESCs into neuroepithelial progenitors and into differentiated neurons, the various cell types were visualized by immunocytochemistry: • using a primary anti-nestin antibody (nestin=intermediate filament protein), specific of neuroepithelial progenitors, and • using a primary anti-MAP2 antibody (MAP2=microtubule associated protein 2), specific of dendrites, and thus specific of differentiated neurons.\nThe total number of cells was measured by labelling nuclei using bisbenzimide/Hoechst 33342, a fluorescent dye with an affinity for DNA that is commonly used to color nuclei in blue."}, "[2]": {"tested_on": "human mesenchymal stem cells (hMSC)", "experiment": "Cell proliferation of hMSCs depending on the culture conditions", "details": "whatever the conditions / FBS concentration (2% or 10% FBS)", "source_text": "Adult human bone marrow mononuclear cells Ficoll-extracted from two donors were obtained from Lonza. Cells were passaged once a week. The human mesenchymal stem cells (hMSC) were selected by plastic adherence and expanded by plating 50 000 cells/cm^2 in Modified Eagle Medium Alpha (MEMalpha, MacoPharma) supplemented with 10% Fetal Bovine Serum (FBS, PAA Laboratoires) and 0.1% Penicilline/Streptomycine (P/S, Lonza). The culture medium was changed after 3 days and then every day. After 2 to 5 weeks of culture at 37° C. in a humid environment and under 5% CO2, hMSC were harvested by trypsinization. The phenotype was confirmed by FACS analysis (BD Bioscience, BD LSR II) with CD73, CD90 and CD105 (positive), as well as CD34 and CD45 (negative) (Table 1).\n(§1) To investigate the neural differentiation capacity of the peptides, 25 cm^2 flasks and 12-wells culture plates were coated with sterile aqueous solutions of either NX210 or NS640 at a concentration of 80 μg/cm^2. Coatings were carried out at 37° C. and 5% CO2 over-night prior to cell plating.\nOn Day 0 (D0), hMSC were seeded at a concentration of 3,000 cells/cm^2 in pre-coated 25 cm^2 flasks or 12-well culture plates in complete medium and culture was placed at 37° C. in a humid environment and under 5% CO2. After 24h, medium was changed and replaced by different combinations of media containing either: MEMalpha—bFGF 12.5 ng/mL—FBS 2%—P/S 0.1%; MEMalpha—bFGF 12.5 ng/mL—FBS 10%—P/S 0.1%; MEMalpha—FBS 2%—P/S 0.1% (control condition); MEMalpha—FBS 10%—P/S 0.1% (control condition). The cells were placed at 37° C. in a humid environment and under 5% CO2, and medium was changed twice a week. […] thus was changed with: MEMalpha—ATRA […]—FBS 2%—P/S 0.1%; MEMalpha—ATRA 20 μM—FBS 10%—P/S 0.1%; MEMalpha—FBS 2%—P/S 0.1% (control condition); MEMalpha—FBS 10%—P/S 0.1% (control condition). The cells were placed at 37° C. in a humid environment and under 5% CO2. Medium was changed twice a week. On Day 15 (D15), cells were harvested by trypsinization for mRNA extraction or fixed immunocytochemical analysis."}, "[3]": {"tested_on": "human mesenchymal stem cells (hMSC)", "experiment": "Neural differentiation of hMSCs: immunocytochemical analysis (Nestin, MAP-2)", "details": "bFGF", "protocol": "as §1\nOn Day 0 (D0), hMSC were seeded at a concentration of 3,000 cells/cm^2 in pre-coated 25 cm^2 flasks or 12-well culture plates in complete medium and culture was placed at 37° C. in a humid environment and under 5% CO2. After 24h, medium was changed and replaced by different combinations of media containing either: MEMalpha—bFGF 12.5 ng/mL—FBS 2%—P/S 0.1%; MEMalpha—bFGF 12.5 ng/mL—FBS 10%—P/S 0.1%; MEMalpha—FBS 2%—P/S 0.1% (control condition); MEMalpha—FBS 10%—P/S 0.1% (control condition). The cells were placed at 37° C. in a humid environment and under 5% CO2, and medium was changed twice a week. On Day 8, medium was replaced by medium containing ATRA in the place of bFGF and thus was changed with: MEMalpha—ATRA […]—FBS 2%—P/S 0.1%; MEMalpha—ATRA 20 μM—FBS 10%—P/S 0.1%; MEMalpha—FBS 2%—P/S 0.1% (control condition); MEMalpha—FBS 10%—P/S 0.1% (control condition). The cells were placed at 37° C. in a humid environment and under 5% CO2. Medium was changed twice a week. On Day 15 (D15), cells were harvested by trypsinization for mRNA extraction or fixed immunocytochemical analysis.\nAssessment of differentiation was performed by gene expression after extraction of mRNA at various time point (DO, D1, D8 and D15), and immunocytochemical analysis performed at the end of the culture period (D15).\nImmunocytochemical analyses were carried out on cells fixed in 4% paraformaldehyde and using standard protocols. After blocking with Triton 1×0.1%/BSA 5% during 30 min, cells were incubated with antibodies directed against Nestin (Millipore) or MAP-2 (Sigma) overnight at +4° C. After washing, appropriate FITC or Cyandidine-5 labelled secondary antibody are added. Nuclei were counterstained with Hoescht 33258 (Sigma). Obervations were performed using Leica TCS LSI system."}, "[4]": {"details": "2% FBS, with or without peptide coating (FIG. 8)"}}, "note": "Entries after “also recorded” stand apart in the source; their conditions may differ.", "data": [{"substance": "W-S-G-W-S-S-C-S-R-S-C-G (WSGWSSCSRSCG) [NX210]", "values": [{"measurement": "population of ESCs expressing the nestin protein", "setting": "[1]; 0.5 mg/ml NX210, 7 days of culture on gelatin, compared to culture in the absence of NX210", "value": "reduced; also recorded: few Nestin+cells"}, {"measurement": "cells expressing the MAP2 protein (differentiated neurons)", "setting": "[1]; 0.5 mg/ml NX210, 7 days of culture, no MAP2 cells in the absence of NX210", "value": "some cells expressing the MAP2 protein"}, {"measurement": "orientation of ESCs to the neuronal differentiation pathway", "setting": "[1]; 0.5 mg/ml NX210, in terms of kinetics", "value": "induces a preferential orientation of ESCs to the neuronal differentiation pathway"}, {"measurement": "MAP2+ cells in ESCs (FIG. 2)", "setting": "[1]; after 5 days in the presence of 0.5 mg/ml NX210, compared to control culture", "value": "only observed in presence of NX210"}, {"measurement": "effect on cell proliferation (number of MSCs)", "setting": "[2]", "value": "no effect"}, {"measurement": "MAP-2 marker expression (immunocytochemistry staining)", "setting": "[3]; [4]", "value": "stronger staining"}, {"measurement": "Nestine marker expression (immunocytochemistry staining)", "setting": "[3]; [4]", "value": "stronger staining"}, {"measurement": "MAP-2 protein presence", "setting": "[3]; 10% FBS, peptide coating (FIG. 8)", "value": "makes possible to observe MAP-2 protein presence"}, {"measurement": "Nestine expression (staining intensity)", "setting": "[3]; 10% FBS, with or without peptide coating, compared to the control condition (FIG. 8)", "value": "maximized"}]}]}
